Tests used:
[1] = molecular target: Coagulation factor X (Homo sapiens, UniProt P00742)
[2] = molecular target: Prothrombin (Homo sapiens, UniProt P00734); test: Inhibition of thrombin
[3] = molecular target: Trypsin (Homo sapiens, UniProt P07477+P07478+P35030); test: Inhibition of trypsin; type: protein assay
[4] = Inhibition of Plasmin; design: species or system Homo sapiens
[5] = molecular target: Urokinase-type plasminogen activator (Homo sapiens, UniProt P00749); test: Inhibition of uPA
[6] = test system: Plasma; test: Anticoagulant activity in human plasma by TT assay; type: functional
[7] = Anticoagulant activity in human plasma by aPTT assay; type: functional
[8] = Permeability across Caco-2 cell membrane; type: ADME, cell-based; settings: human
[9] = test system: Plasma; test: Anticoagulant activity in human plasma by PT assay; type: functional
[10] = Half life in iv dosed rat; type: ADME, organism-based; settings: in vivo
[11] = % of dose in urine of rat at 5 mg/kg po; type: ADME, organism-based; design: dose 5 mg/kg, route oral; settings: read-out: Compound in urine
[12] = test system: Rattus norvegicus; test: Clearance in bile of rat at 5 mg/kg po; type: ADME, organism-based; design: dose 5 mg/kg, route oral; settings: in vivo
[13] = Bioavailability in rat at 5 mg/kg po; type: ADME, organism-based; settings: in vivo

Coagulation factor X, sequence (P00742 41-179 limits assumed): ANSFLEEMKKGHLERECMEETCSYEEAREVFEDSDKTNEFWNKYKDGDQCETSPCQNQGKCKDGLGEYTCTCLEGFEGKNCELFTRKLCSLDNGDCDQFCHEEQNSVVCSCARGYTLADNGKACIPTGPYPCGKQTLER
Coagulation factor X, sequence (P00742 235-488 limits assumed): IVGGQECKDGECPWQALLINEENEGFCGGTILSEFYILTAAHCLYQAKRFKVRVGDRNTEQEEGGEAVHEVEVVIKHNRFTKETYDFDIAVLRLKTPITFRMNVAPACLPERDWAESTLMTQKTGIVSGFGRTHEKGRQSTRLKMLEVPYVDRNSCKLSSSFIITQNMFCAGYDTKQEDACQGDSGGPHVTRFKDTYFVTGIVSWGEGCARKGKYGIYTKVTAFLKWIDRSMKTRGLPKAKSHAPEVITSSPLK

SMILES | Ki [1] [nM] | Ki [2] [µM] | Ki [3] [µM] | Ki [4] [µM] | Ki [5] [µM] | Papp [8] [×10⁻⁶ cm/s] | half-life [10] [min] | dose excreted [11] [%] | CL_biliary [12] [%] | bioavailability [13] [%] | IC200 [6] [µM] | IC200 [7] [µM] | IC200 [9] [µM]
CCOC(=O)CN[C@H](CCc1cccc[n+]1[O-])C(=O)N1CCC[C@H]1C(=O)NCc1cc(Cl)ccc1CN | 1.7 |  | > 0.5 | > 5 | > 5 |  |  |  |  |  | 0.1 | 0.18 | 
NCc1ccc(Cl)cc1CNC(=O)[C@H](CCC(=O)O)NC(=O)C(CCc1cccc[n+]1[O-])NS(=O)(=O)Cc1ccccc1 (stereo partly specified) |  | 20 | > 0.5 | > 5 | > 5 |  |  |  |  |  |  |  | 
NCc1ccc(Cl)cc1CNC(=O)[C@@H]1CCCN1C(=O)[C@@H](CCc1cccc[n+]1[O-])NCC(=O)OC1CCCCC1 |  | 0.009 | > 0.5 | > 5 | > 5 |  |  |  |  |  |  |  | 
CCOC(=O)CC(=O)NC(CCc1cccc[n+]1[O-])C(=O)NCC(=O)NCc1cc(Cl)ccc1CN (stereo unspecified) | 200 | 40 | > 0.5 | > 5 | > 5 |  |  |  |  |  |  |  | 
NCc1ccc(Cl)cc1CNC(=O)CNC(=O)C(CCc1cccc[n+]1[O-])NC(=O)CC(=O)O (stereo unspecified) |  | 140 | > 0.5 | > 5 | > 5 |  |  |  |  |  |  |  | 
C[C@H](NC(=O)[C@@H](CCc1ccccn1)NS(=O)(=O)Cc1ccccc1)C(=O)NCc1cc(Cl)ccc1CN | 0.084 | 0.024 | > 0.5 | > 5 | > 5 |  |  |  |  |  |  |  | 
Nc1ccc(CNC(=O)CNC(=O)C(CCc2cccc[n+]2[O-])NS(=O)(=O)Cc2ccccc2)cn1 (stereo unspecified) | 21 | 88 | > 0.5 | > 5 | > 5 |  |  |  |  |  |  |  | 
O=C(CNC(=O)[C@@H](CCc1cccc[n+]1[O-])NS(=O)(=O)Cc1ccccc1)NCCc1ccncc1 | 3900 | > 1000 | > 0.5 | > 5 | > 5 |  |  |  |  |  |  |  | 
O=C(CNC(=O)[C@@H](CCc1cccc[n+]1[O-])NS(=O)(=O)Cc1ccccc1)NCc1cccc(Cl)c1 | 3.3 | 10 | > 0.5 | > 5 | > 5 |  |  |  |  |  |  |  | 
NCc1ccccc1CNC(=O)CNC(=O)C(CCc1cccc[n+]1[O-])NS(=O)(=O)Cc1ccccc1 (stereo unspecified) | 32 | 40 | > 0.5 | > 5 | > 5 |  |  |  |  |  |  |  | 
O=C(CNC(=O)C(CCc1cccc[n+]1[O-])NS(=O)(=O)Cc1ccccc1)NCc1ccc(Cl)s1 (stereo unspecified) | 53 | 190 | > 0.5 | > 5 | > 5 |  |  |  |  |  |  |  | 
O=C(CNC(=O)C(CCc1cccc[n+]1[O-])NS(=O)(=O)Cc1ccccc1)NCc1cccs1 (stereo unspecified) | 52 | 140 | > 0.5 | > 5 | > 5 |  |  |  |  |  |  |  | 
NCc1ccc(Cl)cc1CNC(=O)CNC(=O)C(CCc1cccc[n+]1[O-])NS(=O)(=O)CC(=O)O (stereo unspecified) |  | 8.3 | > 0.5 | > 5 | > 5 |  |  |  |  |  | 57 | 0.89 | 
NCc1ccc(Cl)cc1CNC(=O)CNC(=O)C(CCc1cccc[n+]1[O-])NC(=O)C(=O)O (stereo unspecified) | 4.9 | 18 | > 0.5 | > 5 | > 5 |  | 30 |  |  |  | 15 | 1.85 | 0.13
NCc1ccc(Cl)cc1CNC(=O)[C@@H]1CCCN1C(=O)[C@@H](CCc1ccccn1)NCC(=O)O |  |  | > 0.5 | > 5 | > 5 | 5 |  |  |  |  | 0.03 | 0.16 | 0.35
NCc1ccc(Cl)cc1CNC(=O)[C@@H]1CCCN1C(=O)[C@@H](CCc1ccc(O)cc1)NCC(=O)O |  | 0.0032 | > 0.5 | > 5 | > 5 |  |  |  |  |  | 0.15 | 0.47 | 0.73
NCc1ccc(Cl)cc1CNC(=O)[C@H](CO)NC(=O)[C@@H](CCc1cccc[n+]1[O-])NS(=O)(=O)Cc1ccccc1 |  |  | > 0.5 | > 5 | > 5 |  |  |  |  |  |  |  | 
NCc1ccc(Cl)cc1CNC(=O)CNC(=O)C(CCc1cccc[n+]1[O-])NCC(=O)O (stereo unspecified) |  | 125 | > 0.5 | > 5 | > 5 |  |  |  |  |  | >100 | 6 | 3.3

Second part, led by results:

Ki [1] [nM] | Ki [2] [µM] | Ki [3] [µM] | Ki [4] [µM] | Ki [5] [µM] | Papp [8] [×10⁻⁶ cm/s] | half-life [10] [min] | dose excreted [11] [%] | CL_biliary [12] [%] | bioavailability [13] [%] | SMILES | IC200 [6] [µM] | IC200 [7] [µM] | IC200 [9] [µM]
0.87 | 0.019 | > 0.5 | > 5 | > 5 |  |  |  |  |  | COC(=O)C(=O)NC(CCc1cccc[n+]1[O-])C(=O)N1CCC[C@H]1C(=O)NCc1cc(Cl)ccc1CN (stereo partly specified) |  |  | 
 | 0.0078 | > 0.5 | > 5 | > 5 |  |  |  |  |  | CCCCCCOC(=O)CN[C@H](CCc1cccc[n+]1[O-])C(=O)N1CCC[C@H]1C(=O)NCc1cc(Cl)ccc1CN |  |  | 
 | 0.17 | > 0.5 | > 5 | > 5 |  |  |  |  |  | C[C@H](NC(=O)[C@@H](CCc1cccc[n+]1[O-])NS(=O)(=O)Cc1ccccc1)C(=O)NCc1cc(Cl)ccc1CN |  |  | 
 | 0.25 | > 0.5 | > 5 | > 5 |  |  |  |  |  | NCc1ccc(Cl)cc1CNC(=O)[C@H](CO)NC(=O)C(CCc1ccccn1)NS(=O)(=O)Cc1ccccc1 (stereo partly specified) |  |  | 
17 | 0.0036 | > 0.5 | > 5 | > 5 | 8.9 |  |  |  |  | CCOC(=O)CN[C@H](CCc1ccc(O)cc1)C(=O)N1CCC[C@H]1C(=O)NCc1cc(Cl)ccc1CN | 0.23 | 0.58 | 0.85
 | 2.7 | > 0.5 | > 5 | > 5 |  |  |  |  |  | CCCS(=O)(=O)NC(CCc1cccc[n+]1[O-])C(=O)NCC(=O)NCc1cc(Cl)ccc1CN (stereo unspecified) | 6.5 | 0.45 | 
0.76 | 0.53 | > 0.5 | > 5 | > 5 |  |  |  |  |  | CC(C)OC(=O)CS(=O)(=O)NC(CCc1cccc[n+]1[O-])C(=O)NCC(=O)NCc1cc(Cl)ccc1CN (stereo unspecified) |  |  | 
 | 0.93 | > 0.5 | > 5 | > 5 |  |  |  |  |  | NCc1ccc(Cl)cc1CNC(=O)CNC(=O)C(CCc1cccc[n+]1[O-])NS(=O)(=O)Cc1ccc(CC(=O)O)cc1 (stereo unspecified) | 1.2 | 0.49 | 0.29
 | 0.0077 | 0.061 | > 5 | > 5 |  |  |  |  |  | NCc1ccc(Cl)cc1CNC(=O)[C@@H]1CCCN1C(=O)[C@@H](CCc1cccc[n+]1[O-])NS(=O)(=O)CC(=O)O | 0.11 | 0.15 | 
0.94 | 0.0173 | > 0.5 | > 5 | > 5 |  |  |  |  |  | NCc1ccc(Cl)cc1CNC(=O)[C@@H]1CCCN1C(=O)[C@@H](CCc1cccc[n+]1[O-])NCC(=O)O | 0.17 | 0.32 | 
 | 0.0038 | > 0.5 | > 5 | > 5 | 2.4 |  |  |  |  | CCOC(=O)CN[C@H](CCc1ccccn1)C(=O)N1CCC[C@H]1C(=O)NCc1cc(Cl)ccc1CN | 0.09 | 0.23 | 0.6
0.32 | 2.7 | 0.0063 |  |  |  |  |  |  |  | N=C(N)c1ccc(CNC(=O)CNC(=O)[C@@H](CCc2cccc[n+]2[O-])NS(=O)(=O)Cc2ccccc2)cc1 |  |  | 
4.9 | 6.5 | > 0.5 | > 5 | > 5 |  |  |  |  |  | COC(=O)C(=O)NC(CCc1cccc[n+]1[O-])C(=O)NCC(=O)NCc1cc(Cl)ccc1CN (stereo unspecified) |  |  | 
 | 0.00056 | 0.019 | > 5 | > 5 |  |  |  |  |  | NCc1ccc(Cl)cc1CNC(=O)[C@@H]1CCCN1C(=O)[C@@H](CCc1cccc[n+]1[O-])NS(=O)(=O)Cc1ccccc1 |  |  | 
2.55 | 7.6 | > 0.5 | > 5 | > 5 |  |  |  |  |  | O=C(CNC(=O)C(CCc1cccc[n+]1[O-])NS(=O)(=O)Cc1ccccc1)NCc1cc(Cl)ccc1Cl (stereo unspecified) |  |  | 
 | 0.17 | 6.5 | 930 | 150 |  | < 20 | 15 | 75 | < 5 | NCc1ccc(Cl)cc1CNC(=O)CNC(=O)[C@@H](CCc1cccc[n+]1[O-])NS(=O)(=O)Cc1ccccc1 | 0.5 | 0.16 | 
0.63 | 0.0177 | > 0.5 | > 5 | > 5 |  |  |  |  |  | COC(=O)C(=O)N[C@H](CCc1cccc[n+]1[O-])C(=O)N1CCC[C@H]1C(=O)NCc1cc(Cl)ccc1CN | 0.13 | 0.3 | 0.79
 | 1.01 | > 0.5 | > 5 | > 5 |  |  |  |  |  | COC(=O)Cc1ccc(CS(=O)(=O)NC(CCc2cccc[n+]2[O-])C(=O)NCC(=O)NCc2cc(Cl)ccc2CN)cc1 (stereo unspecified) |  |  | 
